{"source": "patent US20230026232A1", "about": "“AHR INHIBITORS AND USES THEREOF” (Ikena Oncology, Inc., priority 2019, published 2023)", "key": {"[1]": {"assay": "Glass transition temperature (Tg) by MDSC", "assay_type": "physicochemical", "details": "for Tg: bulk API, melt-quench amorphous, MDSC", "experimental": "DSC was performed using a TA Instruments Discovery DSC2500 differential scanning calorimeter equipped with a TA instruments Refrigerated Cooling System 90 operating in either modulated or ramp mode. DSC was used to measure thermodynamic events and characteristics of Compound A free base and hemi-maleate salt, and subsequent SDIs. Events observed include the glass transition temperature (Tg), cold crystallization (Tc), defined as a crystallization event at a temperature lower than the melt temperature, and melting temperature (Tm). SDI samples were placed in non-hermetic aluminum pans and heated at a constant rate of 2.0° C./min over a 5-200° C. temperature range. The system was purged by nitrogen flow at 50 mL/min to ensure inert atmosphere through the course of measurement. […] Amorphous API was successfully created by rapidly quenching liquefied Compound A using Refrigerated Cooling System 90. The resulting amorphous API was analyzed by modulated DSC. A summary of DSC analysis parameters can be found in Tables 2 and 3.\nThermal properties of both Compound A forms were measured by both DSC and MDSC. […] The Tg of each was measured via a melt-quench technique, heating past its melting temperature and rapidly cooling to trap the molten material in an amorphous state. […] (FIG. 2/Table 11).\nSamples were stored at the elevated humidity conditions for 18 hours at ambient temperature before sealing in hermetic pans and analysis by MDSC. Results are reported as a function of relative humidity (RH) in FIG. 13 and Table 20. All lead SDI formulations (HPMCAS-H and PVP VA64 dispersions) have a Tg that is low at elevated humidity conditions and is predicted to require conservative packaging (i.e., desiccant, foil-foil seal, or etc.) to obtain sufficient long-term physical stability of the SDI. To ensure long-term physical stability in open packaging at all ICH conditions, it is desirable that the SDI have a Tg higher than 50° C. at 75% RH, and ideally higher than 60° C. at 75% RH."}, "[2]": {"molecular_target": "T1, AHR (Homo sapiens, UniProt P35869)", "T1 sequence (P35869 11-848)": "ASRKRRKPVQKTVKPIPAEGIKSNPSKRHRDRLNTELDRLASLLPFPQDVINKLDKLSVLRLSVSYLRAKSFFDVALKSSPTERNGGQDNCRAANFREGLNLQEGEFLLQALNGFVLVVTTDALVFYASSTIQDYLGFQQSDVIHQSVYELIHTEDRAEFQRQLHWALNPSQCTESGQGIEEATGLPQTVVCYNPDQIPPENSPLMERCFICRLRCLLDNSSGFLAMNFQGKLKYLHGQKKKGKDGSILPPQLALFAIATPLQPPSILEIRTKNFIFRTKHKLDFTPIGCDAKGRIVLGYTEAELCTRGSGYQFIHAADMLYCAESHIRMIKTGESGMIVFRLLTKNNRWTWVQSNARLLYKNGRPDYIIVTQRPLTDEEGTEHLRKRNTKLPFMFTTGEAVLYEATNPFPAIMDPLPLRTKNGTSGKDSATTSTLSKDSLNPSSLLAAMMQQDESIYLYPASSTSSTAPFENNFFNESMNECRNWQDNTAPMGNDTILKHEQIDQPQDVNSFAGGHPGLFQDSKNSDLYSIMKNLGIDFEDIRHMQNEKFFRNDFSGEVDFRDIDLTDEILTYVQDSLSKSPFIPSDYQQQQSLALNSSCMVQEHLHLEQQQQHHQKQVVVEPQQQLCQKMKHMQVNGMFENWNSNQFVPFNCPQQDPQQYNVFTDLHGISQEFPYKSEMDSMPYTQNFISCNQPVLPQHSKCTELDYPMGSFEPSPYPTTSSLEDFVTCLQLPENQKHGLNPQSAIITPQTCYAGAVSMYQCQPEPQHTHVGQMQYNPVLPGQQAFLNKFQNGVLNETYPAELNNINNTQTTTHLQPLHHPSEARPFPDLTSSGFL", "assay": "CYP1B1 gene expression in human whole blood ex vivo, basal and L-kynurenine-induced", "assay_type": "cell-based", "design": "endogenous in cells", "details": "Compound A concentrations >0.5 μM, basal and 20 μM L-kynurenine activated, 24 hours, 2 donors", "experimental": "To further examine the effects of Compound A on basal and ligand-activated AHR-dependent gene expression in human immune cells, blood samples from 2 healthy human donors were exposed ex vivo to Compound A in the presence or absence of 20 μM L-kynurenine to activate AHR. After 24 hours, cells were evaluated for CYP1B1 gene expression. In whole blood samples without AHR activation, basal levels of CYP1B1 expression were inhibited by Compound A treatment in both donors (FIG. 30A). […] In both donors, Compound A concentrations >0.5 μM inhibited CYP1B1 gene expression by greater than 50% under basal and ligand activated conditions."}, "[3]": {"molecular_target": "T2, AHR (Mus musculus, UniProt P30561)", "T2 sequence (P30561 10-805)": "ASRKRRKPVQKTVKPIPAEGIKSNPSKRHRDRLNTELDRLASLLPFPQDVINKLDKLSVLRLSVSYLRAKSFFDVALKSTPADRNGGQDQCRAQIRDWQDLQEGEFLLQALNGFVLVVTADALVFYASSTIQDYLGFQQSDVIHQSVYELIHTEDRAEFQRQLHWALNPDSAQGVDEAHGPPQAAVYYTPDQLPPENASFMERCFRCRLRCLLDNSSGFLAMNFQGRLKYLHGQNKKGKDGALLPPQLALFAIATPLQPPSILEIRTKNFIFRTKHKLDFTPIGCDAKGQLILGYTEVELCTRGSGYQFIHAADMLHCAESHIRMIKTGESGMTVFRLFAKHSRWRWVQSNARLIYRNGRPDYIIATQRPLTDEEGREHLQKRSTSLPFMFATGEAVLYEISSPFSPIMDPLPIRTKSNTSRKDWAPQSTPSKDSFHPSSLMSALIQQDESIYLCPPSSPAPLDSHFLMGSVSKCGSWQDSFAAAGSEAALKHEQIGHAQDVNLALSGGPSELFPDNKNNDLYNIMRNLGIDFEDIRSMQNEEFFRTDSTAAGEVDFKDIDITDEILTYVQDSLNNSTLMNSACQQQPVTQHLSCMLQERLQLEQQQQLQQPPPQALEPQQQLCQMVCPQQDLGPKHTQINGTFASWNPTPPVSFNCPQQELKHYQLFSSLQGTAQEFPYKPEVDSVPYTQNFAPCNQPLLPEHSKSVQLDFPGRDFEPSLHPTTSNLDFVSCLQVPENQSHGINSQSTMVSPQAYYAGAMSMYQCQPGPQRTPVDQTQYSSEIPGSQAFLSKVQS", "assay": "AHR-dependent Cyp1A1 expression (P450-Glo) in mouse Hepa1.6 cells stimulated with VAF347", "assay_type": "cell-based", "details": "read-out: IC50, AHR-dependent expression of Cyp1A1; murine Hepa1.6 cells, 2 μM VAF347, 24 hours, average", "experimental": "The ability of Compound A to inhibit AHR-dependent Cyp1A1 gene expression was examined in vitro by measuring changes in Cyp1A1 enzymatic activity in 2 rodent hepatoma cell lines following AHR agonist stimulation. Mouse Hepa1.6 and rat H411E hepatoma cells were treated with AHR agonists VAF347 and L-kynurenine, respectively, in the presence of Compound A at multiple concentrations for 24 hours. The inhibition of Cyp1A1 expression was subsequently evaluated by measuring Cyp1A1 enzyme activity using P450-Glo assays."}}}
{"molecule": "CC(C)c1cnn2c(N[C@@H]3CCc4[nH]c5ccccc5c4C3)nc(-c3cncc(F)c3)nc12", "note": "[Compound A, (R)—N-(2-(5-fluoropyridin-3-yl)-8-isopropylpyrazolo[1,5-a][1,3,5]triazin-4-yl)-2,3,4,9-tetrahydro-1H-carbazol-3-amine]", "values": [{"measurement": "Tm/Tg ratio", "setting": "[1]; K/K, indicator of physical stability", "result": 1.30}, {"measurement": "Tg", "setting": "[1]; listed as Compound A Free Base", "result": 95, "unit": "°C"}, {"measurement": "Tg", "setting": "[1]; listed as free base", "result": 95, "unit": "°C"}, {"measurement": "inhibition of CYP1B1 gene expression", "setting": "[2]", "result": "greater than 50%"}, {"measurement": "IC50", "setting": "[3]", "result": 36, "unit": "nM"}]}
